Reference: ChEMBL document CHEMBL5120836, “Discovery of novel 7,8-dihydropteridine-6(5H)-one-based DNA-PK inhibitors as potential anticancer agents via scaffold hopping strategy” (Eur J Med Chem, 2022)
Converted amounts (≈) assume the structure as drawn. The source made the active and inactive calls. The rule behind the calls is not given here.

What was measured:
[1] = Toxicity in BALB/c nude mouse xenografted with human HL-60 cells assessed as effect on body weight at 100 mg/kg, po qd for 16 days; format: organism-based; details: in vivo, 384 h, time 16 day
[2] = system: MDA-MB-231; experiment: Additive antiproliferative activity against human MDA-MB-231 cells assessed as combination index at 200 uM in presence of 0.1 uM doxorubicin by MTT assay; format: functional
[3] = system: HCT-116; experiment: Antiproliferative activity against human HCT-116 cells assessed as inhibition of cell growth incubated for 48 hrs by MTT assay; format: functional, cell-based; details: HCT-116, 48 h
[4] = system: HL-60; experiment: Synergistic antiproliferative activity against human HL-60 cells assessed as combination index at 0.5 uM in presence of 0.1 uM doxorubicin by MTT assay; format: functional
[5] = system: MCF7; experiment: Synergistic antiproliferative activity against human MCF7 cells assessed as combination index at 0.1 uM in presence of 0.1 uM doxorubicin by MTT assay; format: functional
[6] = system: HCT-116; experiment: Induction of apoptosis in human HCT-116 cells assessed as early apoptotic cells at 1 uM incubated for 24 hrs by AnnexinV-FITC/PI staining based flow cytometry (reference value: 3.04%); format: functional
[7] = system: MDA-MB-231; experiment: Synergistic antiproliferative activity against human MDA-MB-231 cells assessed as inhibition of cell growth in presence of 100 nM doxorubicin by MTT assay; format: functional, cell-based
[8] = Toxicity in BALB/c nude mouse xenografted with human HL-60 cells assessed as serum lymphocytes content at 100 mg/kg, po qd for 16 days (reference value: 75.3%); format: organism-based; details: in vivo, 384 h, time 16 day
[9] = system: HepG2; experiment: Synergistic antiproliferative activity against Doxorubicin-resistant human HepG2 cells assessed as combination index at 1 uM in presence of 0.1 uM doxorubicin by MTT assay; format: functional
[10] = system: HL-60; experiment: Synergistic antiproliferative activity against human HL-60 cells assessed as inhibition of cell growth in presence of 100 nM doxorubicin by MTT assay; format: functional, cell-based
[11] = Toxicity in BALB/c nude mouse xenografted with human HL-60 cells assessed as serum RBC content at 100 mg/kg, po qd for 16 days (reference value: 10.375X10^12/L); format: organism-based, Erythrocyte; details: in vivo, 384 h, time 16 day
[12] = system: HepG2; experiment: Synergistic antiproliferative activity against Doxorubicin-resistant human HepG2 cells assessed as combination index at 200 uM in presence of 0.1 uM doxorubicin by MTT assay; format: functional
[13] = Toxicity in BALB/c nude mouse xenografted with human HL-60 cells assessed as serum monocytes content at 100 mg/kg, po qd for 16 days (reference value: 12.2%); format: organism-based; details: in vivo, 384 h, time 16 day
[14] = system: HCT-116; experiment: Synergistic antiproliferative activity against human HCT-116 cells assessed as combination index at 100 uM incubated for 48 hrs in presence of 0.1 to 50 uM doxorubicin by MTT assay; format: functional
[15] = system: HepG2; experiment: Synergistic antiproliferative activity against Doxorubicin-resistant human HepG2 cells assessed as combination index at 25 uM in presence of 0.1 uM doxorubicin by MTT assay; format: functional
[16] = biological target: Phosphatidylinositol 4,5-bisphosphate 3-kinase catalytic subunit beta isoform (Homo sapiens, UniProt P42338); experiment: Inhibition of human PI3Kbeta by ADP-Glo assay; format: toxicity
[17] = system: HCT-116; experiment: Antiproliferative activity against human HCT-116 cells assessed as inhibition of cell growth incubated for 48 hrs in presence of 100 nM doxorubicin by MTT assay; format: functional, cell-based; details: HCT-116, 48 h
[18] = system: HCT-116; experiment: Induction of apoptosis in human HCT-116 cells assessed as viable cells at 1 uM incubated for 24 hrs by AnnexinV-FITC/PI staining based flow cytometry (reference value: 93.9%); format: functional; details: read-out: Activity
[19] = system: HCT-116; experiment: Induction of apoptosis in human HCT-116 cells assessed as early apoptotic cells at 1 uM incubated for 24 hrs in presence of 100 nM doxorubicin by AnnexinV-FITC/PI staining based flow cytometry (reference value: 3.04%); format: functional
[20] = biological target: Phosphatidylinositol 4,5-bisphosphate 3-kinase catalytic subunit alpha isoform (Homo sapiens, UniProt P42336); experiment: Inhibition of human PI3Kalpha by Kinase-Glo assay; format: toxicity
Sequence of Phosphatidylinositol 4,5-bisphosphate 3-kinase catalytic subunit alpha isoform (P42336 whole entry, canonical isoform): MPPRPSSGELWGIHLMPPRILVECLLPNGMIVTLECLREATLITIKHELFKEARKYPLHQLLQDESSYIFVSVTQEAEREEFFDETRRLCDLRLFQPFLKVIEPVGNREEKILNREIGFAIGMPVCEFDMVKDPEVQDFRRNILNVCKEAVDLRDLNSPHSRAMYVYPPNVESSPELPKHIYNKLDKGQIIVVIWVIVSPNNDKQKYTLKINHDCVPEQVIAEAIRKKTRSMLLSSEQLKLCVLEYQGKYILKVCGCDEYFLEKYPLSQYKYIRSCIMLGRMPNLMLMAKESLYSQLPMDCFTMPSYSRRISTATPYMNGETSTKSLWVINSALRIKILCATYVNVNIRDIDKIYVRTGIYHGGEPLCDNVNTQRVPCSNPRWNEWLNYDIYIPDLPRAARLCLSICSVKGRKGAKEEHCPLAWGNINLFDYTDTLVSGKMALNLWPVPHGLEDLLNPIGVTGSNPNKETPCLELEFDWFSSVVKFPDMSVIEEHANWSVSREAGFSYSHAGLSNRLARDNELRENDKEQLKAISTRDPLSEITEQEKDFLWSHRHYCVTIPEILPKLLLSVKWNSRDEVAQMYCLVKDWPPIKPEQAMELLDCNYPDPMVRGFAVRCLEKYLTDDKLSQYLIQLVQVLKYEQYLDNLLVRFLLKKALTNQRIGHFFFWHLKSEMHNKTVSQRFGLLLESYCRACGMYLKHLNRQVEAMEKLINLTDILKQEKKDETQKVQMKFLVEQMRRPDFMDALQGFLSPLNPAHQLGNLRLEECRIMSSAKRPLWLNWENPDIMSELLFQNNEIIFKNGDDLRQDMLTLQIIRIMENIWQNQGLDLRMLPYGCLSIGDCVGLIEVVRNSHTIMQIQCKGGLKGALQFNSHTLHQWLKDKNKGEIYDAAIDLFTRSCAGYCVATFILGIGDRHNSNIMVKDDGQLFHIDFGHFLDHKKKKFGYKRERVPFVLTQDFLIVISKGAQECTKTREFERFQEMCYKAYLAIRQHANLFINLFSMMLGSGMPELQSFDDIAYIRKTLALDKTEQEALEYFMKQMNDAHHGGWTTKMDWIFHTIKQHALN

[21] = system: MDA-MB-231; experiment: Synergistic antiproliferative activity against human MDA-MB-231 cells assessed as combination index at 6.25 uM in presence of 0.1 uM doxorubicin by MTT assay; format: functional
[22] = system: HepG2; experiment: Synergistic antiproliferative activity against Doxorubicin-resistant human HepG2 cells assessed as combination index at 0.1 uM in presence of 0.1 uM doxorubicin by MTT assay; format: functional
[23] = Toxicity in BALB/c nude mouse xenografted with human HL-60 cells assessed as HGB level at 100 mg/kg, po qd for 16 days (reference value: 156 g/L); format: organism-based; details: in vivo, 384 h, time 16 day
[24] = system: HCT-116; experiment: Induction of apoptosis in human HCT-116 cells assessed as necrotic cells at 1 uM incubated for 24 hrs by AnnexinV-FITC/PI staining based flow cytometry (reference value: 0.031%); format: functional
[25] = system: HL-60; experiment: Synergistic antiproliferative activity against human HL-60 cells assessed as combination index at 100 uM in presence of 0.1 uM doxorubicin by MTT assay; format: functional
[26] = Kinetic solubility of the compound in phosphate-buffered solution at pH 6.4 incubated for 24 hrs by HPLC-MS/MS analysis; format: physicochemical; details: phosphate buffer, read-out: Kinetic_solubility
[27] = system: MCF7; experiment: Synergistic antiproliferative activity against human MCF7 cells assessed as combination index at 100 uM in presence of 0.1 uM doxorubicin by MTT assay; format: functional
[28] = system: HL-60; experiment: Synergistic antiproliferative activity against human HL-60 cells assessed as combination index at 3.1 uM in presence of 0.1 uM doxorubicin by MTT assay; format: functional
[29] = system: HepG2; experiment: Synergistic antiproliferative activity against Doxorubicin-resistant human HepG2 cells assessed as combination index at 12.5 uM in presence of 0.1 uM doxorubicin by MTT assay; format: functional
[30] = system: HL-60; experiment: Synergistic antitumor activity against human HL-60 cells xenografted in BALB/c nude mouse assessed as tumor weight at 100 mg/kg, po qd for 16 days co-administered with doxorubicin (reference value: 27.9%); format: functional; details: HL-60, 384 h, time 16 day
[31] = Toxicity in BALB/c nude mouse xenografted with human HL-60 cells assessed as HCT level at 100 mg/kg, po qd for 16 days (reference value: 66.3%); format: organism-based; details: in vivo, 384 h, time 16 day
[32] = MRT (0 to infinity) in Sprague-Dawley rat at 5 mg/kg, po; format: ADME, organism-based; details: in vivo
[33] = system: HCT-116; experiment: Disruption of mitochondrial function in human HCT-116 cells assessed as decrease in mitochondrial membrane potential by measuring proportion of cells with green fluorescence at 1 uM incubated for 24 hrs by JC-1 staining based flow cytometry (reference value: 0.566%); format: functional; set-up: scale not given: the % may be the effect or the level left
[34] = Half life in human liver microsomes; format: ADME, Microsome
[35] = system: HL-60; experiment: Synergistic antiproliferative activity against human HL-60 cells assessed as combination index at 0.1 uM in presence of 0.1 uM doxorubicin by MTT assay; format: functional
[36] = biological target: DNA-dependent protein kinase catalytic subunit (Homo sapiens, UniProt P78527); experiment: Inhibition of human native full length DNA-PK by ADP-Glo assay
Sequence of DNA-dependent protein kinase catalytic subunit (P78527 whole entry): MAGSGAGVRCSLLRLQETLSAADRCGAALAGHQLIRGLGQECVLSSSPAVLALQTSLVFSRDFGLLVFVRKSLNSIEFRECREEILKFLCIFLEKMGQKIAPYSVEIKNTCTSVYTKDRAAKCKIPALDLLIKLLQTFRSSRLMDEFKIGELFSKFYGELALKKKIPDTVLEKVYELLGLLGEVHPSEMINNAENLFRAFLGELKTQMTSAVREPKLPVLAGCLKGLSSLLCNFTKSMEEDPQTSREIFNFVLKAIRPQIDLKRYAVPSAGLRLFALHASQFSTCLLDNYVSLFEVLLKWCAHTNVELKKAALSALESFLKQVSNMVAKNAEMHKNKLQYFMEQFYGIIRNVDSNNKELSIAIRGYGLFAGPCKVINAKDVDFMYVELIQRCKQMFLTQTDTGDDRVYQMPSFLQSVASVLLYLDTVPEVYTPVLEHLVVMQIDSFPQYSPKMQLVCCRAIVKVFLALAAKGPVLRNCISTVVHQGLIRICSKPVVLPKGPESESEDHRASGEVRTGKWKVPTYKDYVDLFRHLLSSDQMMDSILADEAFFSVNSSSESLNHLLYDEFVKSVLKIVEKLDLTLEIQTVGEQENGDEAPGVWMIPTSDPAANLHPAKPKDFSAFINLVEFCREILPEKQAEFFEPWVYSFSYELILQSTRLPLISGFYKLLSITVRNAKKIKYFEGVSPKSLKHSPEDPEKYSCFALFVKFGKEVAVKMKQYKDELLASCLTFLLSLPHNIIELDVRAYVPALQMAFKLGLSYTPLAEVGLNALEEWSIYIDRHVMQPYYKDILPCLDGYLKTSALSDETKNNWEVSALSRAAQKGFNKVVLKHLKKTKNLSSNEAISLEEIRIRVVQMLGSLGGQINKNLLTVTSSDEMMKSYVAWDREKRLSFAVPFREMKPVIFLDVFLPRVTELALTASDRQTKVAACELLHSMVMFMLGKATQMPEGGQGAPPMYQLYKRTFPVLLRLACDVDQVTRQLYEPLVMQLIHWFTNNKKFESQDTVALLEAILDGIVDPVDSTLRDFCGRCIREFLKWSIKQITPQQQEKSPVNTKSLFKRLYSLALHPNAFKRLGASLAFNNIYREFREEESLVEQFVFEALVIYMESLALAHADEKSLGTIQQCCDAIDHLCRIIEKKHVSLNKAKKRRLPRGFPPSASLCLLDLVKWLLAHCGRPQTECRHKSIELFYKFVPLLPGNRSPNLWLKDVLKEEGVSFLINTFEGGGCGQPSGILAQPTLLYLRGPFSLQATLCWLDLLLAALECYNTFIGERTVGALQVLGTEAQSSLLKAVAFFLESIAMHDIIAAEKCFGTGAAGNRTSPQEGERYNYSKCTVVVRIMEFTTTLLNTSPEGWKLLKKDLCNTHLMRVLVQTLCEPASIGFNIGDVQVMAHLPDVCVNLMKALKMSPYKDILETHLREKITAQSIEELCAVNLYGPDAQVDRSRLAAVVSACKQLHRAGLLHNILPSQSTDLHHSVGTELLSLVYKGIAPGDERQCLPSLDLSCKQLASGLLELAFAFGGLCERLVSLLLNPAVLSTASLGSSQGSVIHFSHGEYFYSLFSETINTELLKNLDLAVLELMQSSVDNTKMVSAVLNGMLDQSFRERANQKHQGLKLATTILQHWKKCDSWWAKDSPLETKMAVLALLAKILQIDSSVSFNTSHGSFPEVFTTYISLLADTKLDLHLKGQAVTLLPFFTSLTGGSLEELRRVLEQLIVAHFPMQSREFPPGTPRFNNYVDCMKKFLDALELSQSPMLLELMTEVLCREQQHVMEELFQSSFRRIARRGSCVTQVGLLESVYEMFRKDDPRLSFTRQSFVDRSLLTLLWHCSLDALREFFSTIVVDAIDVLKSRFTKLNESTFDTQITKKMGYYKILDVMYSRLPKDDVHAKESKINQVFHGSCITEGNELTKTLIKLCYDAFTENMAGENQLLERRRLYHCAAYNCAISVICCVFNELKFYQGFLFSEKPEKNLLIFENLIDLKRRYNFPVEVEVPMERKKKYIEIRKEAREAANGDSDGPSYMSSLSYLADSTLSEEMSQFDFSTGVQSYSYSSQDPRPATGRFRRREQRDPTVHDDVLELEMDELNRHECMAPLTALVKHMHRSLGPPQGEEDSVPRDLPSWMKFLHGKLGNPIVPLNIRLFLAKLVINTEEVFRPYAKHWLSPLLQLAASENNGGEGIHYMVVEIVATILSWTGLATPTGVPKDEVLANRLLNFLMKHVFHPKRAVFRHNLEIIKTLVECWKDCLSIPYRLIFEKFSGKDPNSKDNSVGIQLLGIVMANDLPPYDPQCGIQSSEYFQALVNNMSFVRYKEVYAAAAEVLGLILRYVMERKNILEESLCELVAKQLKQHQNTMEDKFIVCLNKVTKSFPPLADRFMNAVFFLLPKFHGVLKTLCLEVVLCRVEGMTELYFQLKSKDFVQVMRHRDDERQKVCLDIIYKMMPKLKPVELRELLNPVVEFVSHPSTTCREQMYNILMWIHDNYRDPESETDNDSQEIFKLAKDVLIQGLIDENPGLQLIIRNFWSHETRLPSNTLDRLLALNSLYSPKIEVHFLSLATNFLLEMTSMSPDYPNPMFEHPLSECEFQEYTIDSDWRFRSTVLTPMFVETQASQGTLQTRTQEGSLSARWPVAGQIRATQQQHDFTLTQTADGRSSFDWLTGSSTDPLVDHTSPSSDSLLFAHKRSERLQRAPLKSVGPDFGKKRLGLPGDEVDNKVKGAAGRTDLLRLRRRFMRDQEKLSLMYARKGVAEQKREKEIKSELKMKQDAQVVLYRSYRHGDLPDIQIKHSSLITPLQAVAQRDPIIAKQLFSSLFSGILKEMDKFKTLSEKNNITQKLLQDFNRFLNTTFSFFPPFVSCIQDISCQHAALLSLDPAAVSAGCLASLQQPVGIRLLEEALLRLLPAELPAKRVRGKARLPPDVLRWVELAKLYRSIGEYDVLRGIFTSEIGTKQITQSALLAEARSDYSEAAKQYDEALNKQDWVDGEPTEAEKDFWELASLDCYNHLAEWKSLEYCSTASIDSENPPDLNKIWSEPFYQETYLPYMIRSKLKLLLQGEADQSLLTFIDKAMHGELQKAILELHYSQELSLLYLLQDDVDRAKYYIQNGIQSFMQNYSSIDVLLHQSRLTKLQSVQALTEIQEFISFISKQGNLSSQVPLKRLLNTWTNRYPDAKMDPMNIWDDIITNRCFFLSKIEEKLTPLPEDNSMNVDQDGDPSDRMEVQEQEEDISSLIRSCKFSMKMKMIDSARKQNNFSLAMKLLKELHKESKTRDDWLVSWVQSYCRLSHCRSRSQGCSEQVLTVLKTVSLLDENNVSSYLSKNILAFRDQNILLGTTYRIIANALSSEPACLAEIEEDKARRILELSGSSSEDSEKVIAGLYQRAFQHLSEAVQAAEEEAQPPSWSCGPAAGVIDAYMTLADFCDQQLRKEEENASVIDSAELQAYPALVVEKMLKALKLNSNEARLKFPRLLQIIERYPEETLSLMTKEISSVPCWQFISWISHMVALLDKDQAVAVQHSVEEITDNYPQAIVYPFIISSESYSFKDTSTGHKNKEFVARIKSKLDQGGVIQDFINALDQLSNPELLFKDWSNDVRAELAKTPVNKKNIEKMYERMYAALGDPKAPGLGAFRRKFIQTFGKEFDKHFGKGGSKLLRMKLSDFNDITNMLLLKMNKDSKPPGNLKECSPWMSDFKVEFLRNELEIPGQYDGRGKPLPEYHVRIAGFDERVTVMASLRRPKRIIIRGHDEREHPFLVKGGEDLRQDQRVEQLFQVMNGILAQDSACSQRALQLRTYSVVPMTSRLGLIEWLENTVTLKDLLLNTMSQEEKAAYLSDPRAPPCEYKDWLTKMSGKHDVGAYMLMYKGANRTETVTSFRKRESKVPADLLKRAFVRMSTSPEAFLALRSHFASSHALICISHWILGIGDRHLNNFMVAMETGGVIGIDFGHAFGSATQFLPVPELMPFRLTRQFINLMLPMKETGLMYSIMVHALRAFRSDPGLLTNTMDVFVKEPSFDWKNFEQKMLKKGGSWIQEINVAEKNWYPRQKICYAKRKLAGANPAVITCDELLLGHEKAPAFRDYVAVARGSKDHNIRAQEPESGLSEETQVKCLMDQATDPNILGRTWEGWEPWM

[37] = Toxicity in BALB/c nude mouse xenografted with human HL-60 cells assessed as effect on body weight at 100 mg/kg, po qd for 16 days co-administered with doxorubicin; format: organism-based; details: in vivo, 384 h, time 16 day

IC50 [3]: 24100 nM
IC50 [10]: < 100 nM
IC50 [17]: 17100 nM
solubility kinetic at 24 h [26]: 72.2 µg/mL (≈ 183 µM)
MRT inf [32]: 2.29 h
half-life [34]: > 2.42 h
IC50 [36]: 0.8 nM
SMILES: Cc1cc2ncnn2cc1Nc1ncc2c(n1)N(C1CCOCC1)CC(=O)N2C
Activity [1]: Non-Toxic
CI [2]: 1.006
CI [4]: 0.00341
CI [5]: 0.2844
Activity [6]: 3.46%
Activity [7]: Active
Activity [8]: 77.25%
CI [9]: 0.011
Activity [11]: 10.315 10^12/L
CI [12]: 0.2062
Activity [13]: 12.15%
CI [14]: <0.1
CI [15]: 0.07268
IC50 [16]: 830 nM
viability at 1 µM [18]: 92.5%
Activity [19]: 13.3%
IC50 [20]: 187 nM
CI [21]: 0.3693
CI [22]: 0.06059
Activity [23]: 148 g/L
Activity [24]: 0.015%
CI [25]: 0.551
CI [27]: 0.2764
CI [28]: 0.01772
CI [29]: 0.04474
inhibition in vivo at 100 mg/kg [30]: 52.4%
Activity [31]: 65.1%
Activity [33]: 3.55%
CI [35]: 0.00121
Activity [37]: Non-Toxic
